How the values were obtained:
Tasters [1] = assay: Sensory evaluation of test material as a sweetener (taster panel, scale of 1 to 10); assay type: in vivo, human; design: key: not observed or only minimally observed (−); highly observed (+++); conditions: for Sweet Intensity: averaged taster scores, scale 1 to 10 with Reb A 400 ppm = 5 and sucrose 6.5% = 10, noseclips, blinded; for Sweet Quality: based upon temporal profile (sweet onset, linger) and attributes such as syrupy, round, clean; for Bitterness: taster comments and scores converted into symbols
From the text: Sample preparation protocol for testing material as a sweetener: Tasters wore noseclips and were blinded to the identity of the test material. Tasters sampled 400 ppm Rebaudioside A and 6.5 Brix sucrose prior to the test material. Reb A 400 ppm was assigned a 5 on the scale of 1 to 10 as shown in FIG. 8 and sucrose (6.5%) was assigned a 10 on the same scale. Tasters were asked to rinse their mouths 5 times with water between tasting each sample. Tasters were then given the test article and asked to rank the test article for sweetness on the noted scale. Tasters were also asked to provide comments about bitterness, linger, flavors, and any other perceptions.
Numerical scores from all tasters were averaged and, taken together with comments regarding sweet quality, bitterness and off-tastes, converted into the symbols “−,” “+,” “++,” and “+++” to indicate whether a given characteristic was not observed or only minimally observed (−) or highly observed (+++). For example, a sample having a “−” in both sweet intensity and bitterness should be understood as a sample having minimal or no sweetness and minimal or no bitter flavor. By contrast, a sample having a “+++” in both sweet intensity and bitterness should be understood as a sample having highly observed sweet intensity and bitterness.
Preparation of Reb A in this experiment: Prepare 400 ppm Reb A in water (pH=7): 40 mg of Rebaudioside A was dissolved with stirring in 100 ml of water at room temperature.
Preparation of Sucrose in this experiment: Prepare 6.5% Sucrose in water (pH=7): weight 6.5 gr of Sucrose and dissolve it in 93.5 gr water (total 100 gr)
• Sweet quality was based upon a temporal profile (sweet onset, linger) and attributes such as syrupy, round, clean.

Tasters [2] = assay: Sweetness enhancement, Forced Choice Test; assay type: in vivo, human; design: key: not observed or only minimally observed (−); highly observed (+++); conditions: sweetener (4 Brix sucrose, 4 Brix HFCS or 200 ppm Rebaudioside A) with vs without test compound at a level below 1.5% SEV
Procedure: Sample preparation protocol: For testing the material as a sweet/flavor modifying ingredient, two samples were prepared: a 4° Brix high-fructose corn syrup (HFCS) control solution and a 4° Brix HFCS solution with a known concentration of test ingredient.
Sample Preparation: 4° Brix HFCS control solution was prepared by adding 50.89 grams of 78.60° Brix HFCS to 1000 g phosphoric acid base which was prepared by adding phosphoric acid dropwise into 1 L of Aquafina Water until pH 3.1 was obtained. pH was measured using a METTLER TOLEDO pH meter.
In the case of a different Brix of HFCS starting syrup, the following formula can be used for the amount of HFCS required to make HFCS control solution. 4° Brix/100*1000 mL/(78.5° Brix/100)=50.96
If any cloudiness persisted, the sample solution was passed through a paper filter. For some low soluble compounds, Branson 2800 Ultra Sonic Bath was used to dissolve the material. If any cloudiness persisted, the sample solution was passed through a paper filter. Solubility was confirmed by shining a laser pointer through the solution. If no diffraction was observed then it was assumed that the material was soluble
12-16 tasters were presented with these two(2) numbered samples: one contained a sweetener such as 4Brix sucrose, 4 Brix high-fructose corn syrup or 200 ppm Rebaudioside A in phosphate buffer. […]

Row | SMILES | Sweet Intensity (Tasters [1]) | Sweet Quality (Tasters [1]) | Bitterness (Tasters [1]) | Enhancement (Tasters [2])
1 | C=C1C[C@@]23CC[C@H]4[C@@](C)(CCC[C@@]4(C)C(=O)NCC(=O)OC)[C@@H]2CC[C@]1(O[C@@H]1O[C@H](CO)[C@@H](O)[C@H](O[C@@H]2O[C@H](CO)[C@@H](O)[C@H](O)[C@H]2O)[C@H]1O[C@@H]1O[C@H](CO)[C@@H](O)[C@H](O)[C@H]1O)C3 [Compound 5A1, Rebaudioside B—Glycine Methyl ester] | − | − | +++ | 
2 | C=C1C[C@@]23CC[C@H]4[C@@](C)(CCC[C@@]4(C)C(=O)NCC(=O)O)[C@@H]2CC[C@]1(O[C@@H]1O[C@H](CO)[C@@H](O)[C@H](O[C@@H]2O[C@H](CO)[C@@H](O)[C@H](O)[C@H]2O)[C@H]1O[C@@H]1O[C@H](CO)[C@@H](O)[C@H](O)[C@H]1O)C3 [Compound 5A2, Rebaudioside B-Glycine] | +++ |  |  | +++
3 | C=C1C[C@@]23CC[C@H]4[C@@](C)(CCC[C@@]4(C)C(=O)N[C@@H](C)C(=O)OC)[C@@H]2CC[C@]1(O[C@@H]1O[C@H](CO)[C@@H](O)[C@H](O[C@@H]2O[C@H](CO)[C@@H](O)[C@H](O)[C@H]2O)[C@H]1O[C@@H]1O[C@H](CO)[C@@H](O)[C@H](O)[C@H]1O)C3 [Compound 5B1, Rebaudioside B- L-Alanine Methyl ester] |  | − | +++ | 
4 | C=C1C[C@@]23CC[C@H]4[C@@](C)(CCC[C@@]4(C)C(=O)N[C@H](C)C(=O)OC)[C@@H]2CC[C@]1(O[C@@H]1O[C@H](CO)[C@@H](O)[C@H](O[C@@H]2O[C@H](CO)[C@@H](O)[C@H](O)[C@H]2O)[C@H]1O[C@@H]1O[C@H](CO)[C@@H](O)[C@H](O)[C@H]1O)C3 [Compound 5C1, Rebaudioside B- D-Alanine Methyl ester] |  | − |  | 
5 | C=C1C[C@@]23CC[C@H]4[C@@](C)(CCC[C@@]4(C)C(=O)N[C@@H](C(=O)OC)C(C)C)[C@@H]2CC[C@]1(O[C@@H]1O[C@H](CO)[C@@H](O)[C@H](O[C@@H]2O[C@H](CO)[C@@H](O)[C@H](O)[C@H]2O)[C@H]1O[C@@H]1O[C@H](CO)[C@@H](O)[C@H](O)[C@H]1O)C3 [Compound 5D1, Rebaudioside B- D-Valine Methyl ester] | − | − | +++ | 
6 | C=C1C[C@@]23CC[C@H]4[C@@](C)(CCC[C@@]4(C)C(=O)N[C@@H](C(=O)O)C(C)C)[C@@H]2CC[C@]1(O[C@@H]1O[C@H](CO)[C@@H](O)[C@H](O[C@@H]2O[C@H](CO)[C@@H](O)[C@H](O)[C@H]2O)[C@H]1O[C@@H]1O[C@H](CO)[C@@H](O)[C@H](O)[C@H]1O)C3 [Compound 5D2] | +++ |  | − | 
7 | C=C1C[C@@]23CC[C@H]4[C@@](C)(CCC[C@@]4(C)C(=O)N[C@H](Cc4ccccc4)C(=O)OC)[C@@H]2CC[C@]1(O[C@@H]1O[C@H](CO)[C@@H](O)[C@H](O[C@@H]2O[C@H](CO)[C@@H](O)[C@H](O)[C@H]2O)[C@H]1O[C@@H]1O[C@H](CO)[C@@H](O)[C@H](O)[C@H]1O)C3 [Compound 5E1, Rebaudioside B- D-Phenylalanine Methyl ester] | − | − | +++ | 
8 | C=C1C[C@@]23CC[C@H]4[C@@](C)(CCC[C@@]4(C)C(=O)N[C@H](Cc4ccccc4)C(=O)O)[C@@H]2CC[C@]1(O[C@@H]1O[C@H](CO)[C@@H](O)[C@H](O[C@@H]2O[C@H](CO)[C@@H](O)[C@H](O)[C@H]2O)[C@H]1O[C@@H]1O[C@H](CO)[C@@H](O)[C@H](O)[C@H]1O)C3 [Compound 5E2] |  |  | − | 
9 | C=C1C[C@@]23CC[C@H]4[C@@](C)(CCC[C@@]4(C)C(=O)O[C@@H]4O[C@H](CO)[C@@H](O)[C@H](O)[C@@H]4O)[C@@H]2CC[C@]1(O[C@@H]1O[C@H](CO)[C@@H](O)[C@H](O[C@@H]2O[C@H](CO)[C@@H](O)[C@H](O)[C@H]2O)[C@H]1O[C@@H]1O[C@H](CO)[C@@H](O)[C@H](O)[C@H]1O)C3 [Compound 7A, Rebaudioside B Mannoside] | +++ |  |  | 
10 | C=C1C[C@@]23CC[C@H]4[C@@](C)(CCC[C@@]4(C)C(=O)O[C@@H]4OC[C@@H](O)[C@H](O)[C@H]4O)[C@@H]2CC[C@]1(O[C@@H]1O[C@H](CO)[C@@H](O)[C@H](O[C@@H]2O[C@H](CO)[C@@H](O)[C@H](O)[C@H]2O)[C@H]1O[C@@H]1O[C@H](CO)[C@@H](O)[C@H](O)[C@H]1O)C3 [Compound 7C, Rebaudioside B Xyloside] | +++ |  |  | 
11 | C=C1C[C@@]23CC[C@H]4[C@@](C)(CCC[C@@]4(C)C(=O)O[C@@H]4OC[C@@H](O)[C@H](O)[C@H]4O)[C@@H]2CC[C@]1(O[C@@H]1O[C@H](CO)[C@@H](O)[C@H](O[C@@H]2O[C@H](CO)[C@@H](O)[C@H](O)[C@H]2O)[C@H]1O[C@@H]1O[C@@H](C)[C@H](O)[C@@H](O)[C@H]1O)C3 [Compound 7E, Rebaudioside C Xyloside] | − | − | − | 
12 | C=C1C[C@@]23CC[C@H]4[C@@](C)(CCC[C@@]4(C)C(=O)O[C@@H]4O[C@H](CO)[C@H](O)[C@H](O)[C@H]4O)[C@@H]2CC[C@]1(O[C@@H]1O[C@H](CO)[C@@H](O)[C@H](O[C@@H]2O[C@H](CO)[C@@H](O)[C@H](O)[C@H]2O)[C@H]1O[C@@H]1O[C@@H](C)[C@H](O)[C@@H](O)[C@H]1O)C3 [Compound 7F, Rebaudioside C Galactoside] | − | − | − | 
13 | C=C1C[C@@]23CC[C@H]4[C@@](C)(CCC[C@@]4(C)C(=O)O[C@@H]4O[C@H](CO)[C@@H](O)[C@H](O)[C@H]4O[C@@H]4O[C@H](CO)[C@@H](O)[C@H](O)[C@H]4O)[C@@H]2CC[C@]1(O[C@@H]1O[C@H](CO)[C@@H](O)[C@H](O[C@@H]2O[C@H](CO)[C@@H](O)[C@H](O)[C@H]2O)[C@H]1O[C@@H]1O[C@@H](C)[C@H](O)[C@@H](O)[C@H]1O)C3 [Compound 7G, Rebaudioside K] | − | − | − | −
14 | C=C1C[C@@]23CC[C@H]4[C@@](C)(CCC[C@@]4(C)C(=O)O[C@@H]4O[C@H](CO)[C@@H](O)[C@H](O)[C@H]4O)[C@@H]2CC[C@]1(O[C@@H]1O[C@H](CO)[C@@H](O)[C@H](O[C@@H]2O[C@H](CO)[C@@H](O)[C@H](O)[C@H]2O)[C@H]1O[C@@H]1O[C@H](CO)[C@@H](O)[C@H](O)[C@H]1O)C3 [Rebaudioside A] | +++ |  |  | 
15 | OC[C@H]1O[C@@](CO)(O[C@H]2O[C@H](CO)[C@@H](O)[C@H](O)[C@H]2O)[C@@H](O)[C@@H]1O [Sucrose, reference compound] |  | +++ | − | 

From patent US10494397B2, “Rebaudioside analogs” (PepsiCo, Inc., priority 2016, dated 2019)
